# Reference: patent US11840686B2, “Modulation of prekallikrein (PKK) expression” (Ionis Pharmaceuticals, Inc., priority 2013, dated 2023)
# “And” between values parts separate entries of the source, which are not always exact repeats. Equal entries are not always repeated. e = 2'-O-(2-methoxyethyl) (MOE); d = 2'-deoxy (DNA)
# Experiments:
# [1] = Liver function markers in cynomolgus monkeys (Example 8); conditions: cynomolgus monkey plasma, 40 mg/kg sc
# Description: (§6) Prior to the study, the monkeys were kept in quarantine for a 30-day period, during which the animals were observed daily for general health. The monkeys were 2-4 years old and weighed between 2 and 4 kg. Ten groups of four randomly assigned male cynomolgus monkeys each were injected subcutaneously with ISIS oligonucleotide or PBS. PBS solution or ISIS oligonucleotides at a dose of 40 mg/kg were administered initially with a loading regimen consisting of four doses on the first week of the study (days 1, 3, 5, and 7), followed by a maintenance regimen consisting of once weekly administration starting on Day 14 (weeks 2 to 13). Subcutaneous injections were performed in clock-wise rotations at 4 sites on the back; one site per dose. The injection sites were delineated by tattoo, while sedated using ketamine, and were separated by a minimum of 3 cm.
# To evaluate the effect of ISIS oligonucleotides on hepatic function, the monkeys were fasted overnight. Approximately, 1.5 mL of blood samples were collected from all the study groups. Blood was collected in tubes without anticoagulant for serum separation. The tubes were kept at room temperature for a minimum of 90 min and then centrifuged at 3,000 rpm for 10 min. Levels of various liver function markers were measured using a Toshiba 120FR NEO chemistry analyzer (Toshiba Co., Japan).
# [2] = Hematological parameters in cynomolgus monkeys (Example 8); conditions: cynomolgus monkey, 40 mg/kg sc, day 87 or day 88
# Description: as §6
# To evaluate any effect of ISIS oligonucleotides in cynomolgus monkeys on hematologic parameters, blood samples of approximately 1.2 mL of blood was collected pre-dose and on day 87 or day 88 from each of the available study animals in tubes containing K2-EDTA. Samples were analyzed for red blood cell (RBC) count, white blood cells (WBC) count, platelet count, hemoglobin content and hematocrit, using an ADVIA2120i hematology analyzer (SIEMENS, USA).
# human PKK mRNA [3] = test: Antisense inhibition of human PKK mRNA in HepaRG cells, 5,000 nM (Example 2); format: cell-based; conditions: HepaRG cells, 5,000 nM, electroporation, 24 hours
# Procedure, shortened: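 qRT-PCR (RTS3454) read-out, RIBOGREEN-normalized; % inhibition vs untreated cells. HepaRG, 20,000 cells/well, electroporation, 5,000 nM ASO, ~24 h.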
# [4] = Urine protein/creatinine ratio in cynomolgus monkeys (Example 8); conditions: cynomolgus monkey, 40 mg/kg sc
# [5] = Tolerability / clinical observation of cynomolgus monkeys (Example 8); format: in vivo, cynomolgus monkey; conditions: primates, Example 8
# Description: Cynomolgus monkeys were treated with ISIS antisense oligonucleotides selected from studies described above. Antisense oligonucleotide efficacy and tolerability were evaluated. The human antisense oligonucleotides tested are cross-reactive with the rhesus genomic sequence (GENBANK Accession No. NW_001118167.1 truncated from nucleotides 2358000 to 2391000 and designated herein as SEQ ID NO: 18).
# During the study period, the monkeys were observed a minimum of once daily for signs of illness or distress. Any animal experiencing more than momentary or slight pain or distress due to the treatment, injury or illness was promptly reported to the responsible veterinarian and the Study Director. Any animal in poor health or in a possible moribund condition was identified for further monitoring and possible euthanasia. […] The protocols described in the Example were approved by the Institutional Animal Care and Use Committee (IACUC).
# [6] = C-reactive protein and complement C3 levels in cynomolgus monkeys (Example 8); conditions: cynomolgus monkey plasma, 40 mg/kg sc
# Description: as §6
# To evaluate any inflammatory effect of ISIS oligonucleotides in cynomolgus monkeys, the monkeys were fasted overnight. Approximately, 1.5 mL of blood samples were collected from all the study groups. Blood was collected in tubes without anticoagulant for serum separation. The tubes were kept at room temperature for a minimum of 90 min and then centrifuged at 3,000 rpm for 10 min. C-reactive protein (CRP), which is synthesized in the liver and which serves as a marker of inflammation, was measured using a Toshiba 120FR NEO chemistry analyzer (Toshiba Co., Japan). Complement C3 was also measured similarly, and the data is presented as a percentage of baseline values.
# PKK mRNA [7] = test: PKK mRNA in cynomolgus monkey liver (Example 8); format: in vivo; conditions: primates, Example 8
# Procedure, shortened: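 Cynomolgus monkeys were dosed with human antisense oligonucleotides cross-reactive with the rhesus sequence. Liver RNA taken on day 87 or 88, 48 h after the last dose, was assayed by real-time PCR (primer probe set RTS3455) and normalized to cyclophilin. Values are percent PKK mRNA inhibition versus PBS control.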
# human PKK mRNA [8] = test: Human PKK mRNA in liver of human KLKB1 transgenic mice (Example 7); format: in vivo; conditions: transgenic mice, 2.5, 5.0, 10 or 20 mg/kg/week s.c.; three values for four doses, dose not assignable
# Procedure, shortened: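 Transgenic mice carrying a 37,390 bp human KLKB1 fragment dosed subcutaneously twice weekly for 3 weeks at 2.5, 5.0, 10 or 20 mg/kg/week; PBS controls. Liver harvested 48 h after the last dose. Human PKK mRNA measured by real-time PCR and expressed as % inhibition versus PBS.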
# [9] = Kidney function: plasma BUN and creatinine in cynomolgus monkeys (Example 8); conditions: 40 mg/kg s.c.
# human PKK mRNA [10] = test: Dose-dependent antisense inhibition of human PKK in HepaRG cells, 0.19-5.00 uM (Example 5); format: cell-based; conditions: 4 point dose response curve (0.19-5.0 μM), HepaRG cells, electroporation
# Procedure, shortened: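 PKK mRNA knockdown was measured by real-time PCR (primer probe set RTS3454) about 16 h after electroporating 20,000 HepaRG cells per well with oligonucleotide at four doses from 0.19 to 5.00 μM. Levels were adjusted to RIBOGREEN-measured total RNA, and IC50 values were calculated.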
# PKK protein = PKK protein in cynomolgus monkey plasma by ELISA (Example 8); format: in vivo; conditions: 40 mg/kg sc
# Description: Approximately 0.9 mL of blood was collected each time from all available animals at pre-dose, day 17, day 31, day 45, day 59, and day 73, and placed in tubes containing 3.2% sodium citrate. The tubes were centrifuged (3000 rpm for 10 min at room temperature) to obtain plasma. PKK protein levels were measured in the plasma by ELISA. The results are presented in Table 52, expressed as percentage inhibition compared to the PBS control levels.
# [11] = tested on: vascular permeability induced by ISIS 461756; test: C1-INH antisense oligonucleotide-induced vascular permeability, Evans Blue OD600 (Example 18); format: in vivo, mouse; conditions: Evans Blue OD600; all groups ISIS 461756 25 mg/kg/wk; pretreatment PBS or oligonucleotide 80 mg/kg/wk
# Description: (§1) Vascular permeability induced by ISIS 461756, an antisense oligonucleotide which targets murine C1 inhibitor mRNA, increases vascular permeability in mice and replicates the pathology of hereditary angioedema. The effect of ISIS 482584 on this model was evaluated.
# (§2) One group of 8 mice was treated with 40 mg/kg ISIS 482584 administered subcutaneously twice a week for 3 weeks (weekly dose of 80 mg/kg). A second group of 8 mice was treated with 40 mg/kg of the control oligonucleotide, ISIS 141923, administered subcutaneously twice a week for 3 weeks (weekly dose of 80 mg/kg). A third group of 8 mice was treated with PBS administered subcutaneously twice a week for 3 weeks. On day 14, all the groups were treated with 12.5 mg/kg ISIS 461756 administered subcutaneously twice a week for 3 weeks (weekly dose of 25 mg/kg). A control group of mice was treated with PBS administered subcutaneously twice a week for 3 weeks but was not administered ISIS 461756.
# (§3) At the end of the treatment period, all the groups were injected with 30 mg/kg of Evans Blue solution into the tail vein. The mice were sacrificed 30 min after the Evans Blue solution administration and colons, feet, ears, and intestines were harvested. The liver was also harvested for RNA analysis.
# The harvested tissues from the feet, colon, and intestines were placed in formamide solution overnight to leach out the Evans Blue dye. The formamide solution containing feet tissue was heated to 55° C. and left overnight. The color intensity of the dye-infused formamide solution was then measured at OD600 nm. The data is presented in Table 80 as percent increase or reduction compared to the PBS control not treated with ISIS 461756.
# [12] = tested on: captopril and ISIS 461756-induced vascular permeability; test: Evans Blue vascular permeability in captopril and ISIS 461756-induced angioedema mouse models (Example 11); format: in vivo; conditions: captopril Yes, ISIS 461756 Yes; ISIS oligonucleotides 40 mg/kg sc twice a week 4 weeks; HOE-140 30 μg ip
# Text: Hereditary angioedema (HAE) is characterized by local swelling and increase in vascular permeability in subcutaneous tissues (Morgan, B. P. N. Engl. J. Med. 363: 581-83, 2010). It is caused by a deficiency of the C1 inhibitor, a protein of the complement system. Two mouse models were used in this study including an established mouse model of C1-INH deficiency and a captopril-induced edema model, both of which cause vascular permeability, a hallmark of HAE. Reversal of vascular permeability is accompanied by increased plasma levels of high molecular weight kininogen (HMWK).
# In the first model, angioedema was induced by treatment with Captopril, a known antihypertensive agent, which increases vascular permeability in mice and replicates the pathology of hereditary angioedema.
# In the second model, angioedema was induced by treatment with ISIS 461756, an antisense oligonucleotide which targets murine C1 inhibitor mRNA, which increases vascular permeability in mice and replicates the pathology of hereditary angioedema. ISIS 461756 (SEQ ID NO: 2245; […]) is a 5-10-5 MOE gapmer targeting nucleosides 1730-1749 of NM_009776.3 (SEQ ID NO: 2243).
# The effect of HOE-140 and ISIS 482584, an antisense oligonucleotide inhibitor of PKK, were evaluated in the Captopril and ISIS 461756-induced mouse models of vascular permeability. Some of the murine groups were treated with HOE-140, a selective antagonist of the bradykinin B2 receptor, which blocks vasodilation and vascular permeability (Cruden and Newby, Expert Opin. Pharmacol. 9: 2383-90, 2008). Other mice were treated with ISIS 482584, which inhibits PKK mRNA expression. The effect of treatment with HOE-140 was compared with the effect of treatment with ISIS 482584.
# Group 1 consisted of 4 C57BL/6J-Tyrc-2J mice treated with PBS administered subcutaneously twice a week for 4 weeks. No other treatment was administered to Group 1 which served as a control group to measure the basal level of vascular permeability.
# Group 2 consisted of 8 C57BL/6J-Tyrc-2J mice treated with PBS administered subcutaneously twice a week for 4 weeks. At the end of the treatment, the mice were intraperitoneally administered 20 μg of captopril. Group 2 served as a PBS control group for captopril-induced vascular permeability.
# (§4) Group 3 consisted of 8 C57BL/6J-Tyrc-2J mice treated with PBS administered subcutaneously twice a week for 4 weeks. On day 14, the mice were treated with 50 mg/kg of the antisense oligonucleotide targeting C1 inhibitor, ISIS 461756, administered subcutaneously twice a week for 2 weeks. At the end of the treatment period, the mice were intraperitoneally administered 20 μg of captopril. Group 3 served as a PBS control group for captopril and ISIS 461756-induced vascular permeability.
# Group 4 consisted of 8 C57BL/6J-Tyrc-2J mice treated with PBS administered subcutaneously twice a week for 4 weeks. On day 14, the mice were treated with 50 mg/kg of the antisense oligonucleotide targeting C1 inhibitor, ISIS 461756, administered subcutaneously twice a week for 2 weeks. At the end of the treatment period, the mice were intraperitoneally administered 20 μg of captopril. The mice were then also intraperitoneally administered 30 μg of HOE-140. Group 4 served as a positive control for inhibition of vascular permeability with HOE-140.
# as §4, with “5” for “3”, “40 mg/kg of control oligonucleotide ISIS 141923, a 5-10-5 MOE gapmer with no known murine target, ([…]; SEQ ID NO: 2246)” for “PBS”, “a” for “a PBS”, “permeability. […]” for “permeability.”
# PKK mRNA [13] = test: PKK mRNA in liver of mice treated with ISIS 461756 (Example 18); format: in vivo, mouse; conditions: liver; all groups ISIS 461756 25 mg/kg/wk; pretreatment PBS or oligonucleotide 80 mg/kg/wk sc 3 weeks
# Description: as §1, §2, §3
# (§5) RNA was isolated from the liver for RT-PCR analysis of C1-INH and PKK mRNAs. The primer probe set for C1-INH is RTS3218 (forward sequence […], designated herein as SEQ ID NO: 2234; reverse sequence […], designated herein as SEQ ID NO: 2235; probe sequence […], designated herein as SEQ ID NO: 2236). The primer probe set for PKK is RTS3287 (forward sequence […], designated herein as SEQ ID NO: 2237; reverse sequence […], designated herein as SEQ ID NO: 2238; probe sequence […], designated herein as SEQ ID NO: 2239). The results are presented in Table 79 as percent inhibition compared to the PBS control not treated with ISIS 461756.
# C1-INH mRNA = C1-INH mRNA in liver of mice treated with ISIS 461756 (Example 18); format: in vivo, mouse; conditions: for Percent inhibition of C1-INH mRNA expression compared to the untreated PBS control: liver, all groups ISIS 461756 25 mg/kg/wk, pretreatment PBS or oligonucleotide 80 mg/kg/wk sc 3 weeks
# Description: as §1, §2, §3, §5
substance,measurement,setting,value
mCes mCes mCes mCes mCes Tds Tds mCds Tds Tds Tds Ads Tds Ads Gds mCes mCes Aes Ges mCe [ISIS 546343],ALT,[1],76 IU/L
same,AST,[1],49 IU/L
same,Albumin,[1],4.3 g/dL
same,HCT,[2],42%
same,Hemoglobin,[2],12.6 g/dL
same,Platelets,[2],373000 µL⁻¹
same,RBC,[2],5.5e+06 µL⁻¹
same,WBC,[2],14000 µL⁻¹
same,inhibition of human PKK mRNA,human PKK mRNA [3],97% and 91%
same,Urine protein/creatinine ratio,[4],0.01
same,tolerability in primates,[5],tolerable in primates
same,C3 (% of baseline),[6],60 % of baseline
same,CRP,[6],0.2 mg/dL
same,inhibiting PKK mRNA and protein expression in primates,PKK mRNA [7],effective for inhibiting PKK mRNA and protein expression
same,human PKK mRNA inhibition,human PKK mRNA [8],46% and 66% and 86%
same,Plasma BUN,[9],26.2 mg/dL
same,Plasma Creatinine,[9],1.0 mg/dL
same,IC50,human PKK mRNA [10],400 nM
same,PKK protein level reduction (%) in plasma relative to control levels,PKK protein; Day 17,56%
same,PKK protein level reduction (%) in plasma relative to control levels,PKK protein; Day 31,74%
same,PKK protein level reduction (%) in plasma relative to control levels,PKK protein; Day 45,69%
same,PKK protein level reduction (%) in plasma relative to control levels,PKK protein; Day 59,70%
same,PKK protein level reduction (%) in plasma relative to control levels,PKK protein; Day 73,70%
"ISIS 141923: control oligonucleotide, 5-10-5 MOE gapmer with no known murine target, CCTTCCCTGAAGGTTCCTCC; SEQ ID NO: 2246 (sugars from the 5' end e5 d10 e5, backbone and methylation of C not given here) [reference compound]","Percent change in vascular permeability compared to the untreated PBS control, Colon",[11],2%
same,"Percent change in vascular permeability compared to the untreated PBS control, Feet",[11],80%
same,"Percent change in vascular permeability compared to the untreated PBS control, Intestines",[11],14%
same,"OD600 nm of Evans Blue dye, Colons",[12],0.44
same,"OD600 nm of Evans Blue dye, Ears",[12],0.08
same,"OD600 nm of Evans Blue dye, Feet",[12],0.14
same,"OD600 nm of Evans Blue dye, Intestines",[12],0.29
same,Percent inhibition of PKK mRNA expression compared to the untreated PBS control,PKK mRNA [13],0%
same,Percent inhibition of C1-INH mRNA expression compared to the untreated PBS control,C1-INH mRNA,79%
"ISIS 461756: 5-10-5 MOE gapmer which targets murine C1 inhibitor mRNA, AAAGTGGTTGATACCCTGGG; SEQ ID NO: 2245 (sugars from the 5' end e5 d10 e5, backbone and methylation of C not given here)","Percent change in vascular permeability compared to the untreated PBS control, Colon",[11],13%
same,"Percent change in vascular permeability compared to the untreated PBS control, Feet",[11],70%
same,"Percent change in vascular permeability compared to the untreated PBS control, Intestines",[11],27%
same,Percent inhibition of PKK mRNA expression compared to the untreated PBS control,PKK mRNA [13],0%
same,Percent inhibition of C1-INH mRNA expression compared to the untreated PBS control,C1-INH mRNA,76%
same,C1-INH mRNA expression,"C1-INH mRNA; mouse liver, 12.5 mg/kg ISIS 461756 s.c. twice a week",significantly reduced C1-INH mRNA expression
